Experimental data: patent publication US12172990B2 (Constellation Pharmaceuticals, Inc., priority 2018, dated 2024)

What was measured:
[1] = molecular target: human TREX2 (residues M44-A279) (Homo sapiens (Human), UniProt Q9BQ50); assay: TREX2 Biochemical Assay (fluorescence assay measuring degradation of dsDNA substrate); conditions: 2.5 nM TREX2, 60 nM dsDNA substrate, 25 minutes at room temperature
Description: Degradation of the dsDNA liberates free fluorophore to produce a fluorescent signal. Specifically, 7.5 μL of N-terminally His-Tev tagged human TREX2 (residues M44-A279, expressed in E. coli and purified in house) in reaction buffer (50 mM Tris (pH 7.4), 150 mM NaCl, 2 mM DTT, 0.1 mg/mL BSA, 0.01% (v/v) Tween-20 and 100 mM MgCl2) was added to a 384-well Black ProxiPlate Plus (Perkin Elmer) which already contained compound (150 nL) at varying concentrations as a 10 point dose-response in DMSO. To this was added 7.5 μL of dsDNA substrate (Strand A: 5′ TEX615/GCT AGG CAG 3′; Strand B: 5′ CTG CCT AGC/IAbRQSp (IDT)) in reaction buffer. Final concentrations were 2.5 nM TREX2, 60 nM dsDNA substrate in reaction buffer with 1.0% DMSO (v/v). After 25 minutes at room temperature, reactions were quenched by the addition of 5 μL of stop buffer (same as reaction buffer plus 200 mM EDTA). Final concentrations in the quenched reaction mixture were […] TREX2, 45 nM DNA and 50 mM EDTA in a volume of 20 μL. After a 5-minute incubation at room temperature, plates were read in a laser sourced Envision (Perkin-Elmer), measuring fluorescence at 615 nm following excitation w/570 nm light. IC50 values were calculated by comparing the measured fluorescence at 615 nm ratio relative to control wells pre-quenched w/stop buffer (100% inhibition) and no inhibitor (0% inhibition) controls as using non-linear least square four parameter fits and either Genedata or GraphPad Prism (GraphPad Software, Inc.).

full length human TREX1 = full length human TREX1 (Homo sapiens (Human), UniProt Q9NSU2); assay: TREX1 Biochemical Assay (fluorescence assay measuring degradation of dsDNA substrate); conditions: 150 pM TREX1, 60 nM dsDNA substrate, 25 minutes at room temperature
Description: Degradation of the dsDNA liberates free fluorophore to produce a fluorescent signal. Specifically, 7.5 μL of N-terminally His-Tev tagged full length human TREX1 (expressed in E. coli and purified in house) in reaction buffer (50 mM Tris (pH 7.4), 150 mM NaCl, 2 mM DTT, 0.1 mg/mL BSA, 0.01% (v/v) Tween-20 and 100 mM MgCl2 were added to a 384-well Black ProxiPlate Plus (Perkin Elmer) which already contained compound (150 nL) at varying concentrations as a 10 point dose-response in DMSO. To this was added 7.5 μL of dsDNA substrate (Strand A: 5′ TEX615/GCT AGG CAG 3′; Strand B: 5′ CTG CCT AGC/IAbRQSp (Integrated DNA Technologies)) in reaction buffer. Final concentrations were 150 pM TREX1, 60 nM dsDNA substrate in reaction buffer with 1.0% DMSO (v/v). After 25 minutes at room temperature, reactions were quenched by the addition of 5 μL of stop buffer (same as reaction buffer plus 200 mM EDTA). Final concentrations in the quenched reaction were 112.5 pM TREX1, 45 nM DNA and 50 mM EDTA in a volume of 20 μL. After a 5-minute incubation at room temperature, plates were read in a laser sourced Envision (Perkin-Elmer), measuring fluorescence at 615 nm following excitation w/570 nm light. IC50 values were calculated by comparing the measured fluorescence at 615 nm ratio relative to control wells pre-quenched w/stop buffer (100% inhibition) and no inhibitor (0% inhibition) controls as using non-linear least square four parameter fits and either Genedata or GraphPad Prism (GraphPad Software, Inc.).

Sequence of full length human TREX1 (Q9NSU2 whole entry): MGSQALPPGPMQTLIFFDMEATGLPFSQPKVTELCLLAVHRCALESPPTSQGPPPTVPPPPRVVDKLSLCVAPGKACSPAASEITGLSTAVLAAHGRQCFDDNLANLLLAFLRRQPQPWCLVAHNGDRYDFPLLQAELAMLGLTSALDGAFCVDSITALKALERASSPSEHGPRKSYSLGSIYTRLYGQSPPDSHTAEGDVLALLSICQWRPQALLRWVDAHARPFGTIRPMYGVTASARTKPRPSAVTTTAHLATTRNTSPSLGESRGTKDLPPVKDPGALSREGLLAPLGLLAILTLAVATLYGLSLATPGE
Sequence of human TREX2 (residues M44-A279) (Q9BQ50 whole entry, the tested form may be a part): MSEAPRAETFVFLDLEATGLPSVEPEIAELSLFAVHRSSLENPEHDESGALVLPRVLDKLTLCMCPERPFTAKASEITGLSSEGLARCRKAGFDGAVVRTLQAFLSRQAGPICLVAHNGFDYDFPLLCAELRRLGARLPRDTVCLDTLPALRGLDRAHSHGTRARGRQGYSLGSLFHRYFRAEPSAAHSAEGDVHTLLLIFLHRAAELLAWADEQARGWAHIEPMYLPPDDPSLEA

| IC50 [1] [µM] | IC50 (full length human TREX1) [µM] | SMILES |
| --- | --- | --- |
| 10 to 100 | 0.1 to 1 | Cn1c(C2(Cc3ccccc3)CCCN(C(=O)OC(C)(C)C)C2)nc(C(=O)Nc2cnoc2)c(O)c1=O (stereo not drawn) [Example 50, tert-butyl 3-benzyl-3-(5-hydroxy-4-(isoxazol-4-ylcarbamoyl)-1-methyl-6-oxo-1,6-dihydropyrimidin-2-yl)piperidine-1-carboxylate] |
| 1 to 10 | 0.1 to 1 | Cc1cc(C(=O)O)cc(-c2nc(C(=O)Nc3cnoc3)c(O)c(=O)n2C)c1 [Example 51, 3-(5-hydroxy-4-(isoxazol-4-ylcarbamoyl)-1-methyl-6-oxo-1,6-dihydropyrimidin-2-yl)-5-methylbenzoic acid] |
| 1 to 10 | 0.1 to 1 | Cn1c(C2(COCc3ccccc3)CCCN(C(=O)OC(C)(C)C)C2)nc(C(=O)Nc2cnoc2)c(O)c1=O (stereo not drawn) [Example 52, tert-butyl 3-((benzyloxy)methyl)-3-(5-hydroxy-4-(isoxazol-4-ylcarbamoyl)-1-methyl-6-oxo-1,6-dihydropyrimidin-2-yl)piperidine-1-carboxylate] |
| 1 to 10 | 0.1 to 1 | COC(=O)c1cc(C)cc(-c2nc(C(=O)Nc3cnoc3)c(O)c(=O)n2C)c1 [Example 53, methyl 3-(5-hydroxy-4-(isoxazol-4-ylcarbamoyl)-1-methyl-6-oxo-1,6-dihydropyrimidin-2-yl)-5-methylbenzoate] |
| 10 to 100 | 0.1 to 1 | Cc1cc(C(=O)NC2CCN(C)CC2)cc(-c2nc(C(=O)Nc3cnoc3)c(O)c(=O)n2C)c1 [Example 54, 5-hydroxy-N-(isoxazol-4-yl)-1-methyl-2-(3-methyl-5-((1-methylpiperidin-4-yl)carbamoyl)phenyl)-6-oxo-1,6-dihydropyrimidine-4-carboxamide] |
| 1 to 10 | < 0.1 | CNC(=O)c1cc(C)cc(-c2nc(C(=O)Nc3cnoc3)c(O)c(=O)n2C)c1 [Example 55, 5-hydroxy-N-(isoxazol-4-yl)-1-methyl-2-(3-methyl-5-(methylcarbamoyl)phenyl)-6-oxo-1,6-dihydropyrimidine-4-carboxamide] |
| 10 to 100 | 0.1 to 1 | Cn1c(C2CCCN(C(=O)C3CCC(=O)NC3)C2)nc(C(=O)Nc2cnoc2)c(O)c1=O (stereo not drawn) [Example 56, 5-hydroxy-N-(isoxazol-4-yl)-1-methyl-6-oxo-2-(1-(6-oxopiperidine-3-carbonyl)piperidin-3-yl)-1,6-dihydropyrimidine-4-carboxamide] |
| 10 to 100 | 0.1 to 1 | Cn1c(C2CCCN(S(=O)(=O)c3ccccc3)C2)nc(C(=O)Nc2cnoc2)c(O)c1=O (stereo not drawn) [Example 57, 5-hydroxy-N-(isoxazol-4-yl)-1-methyl-6-oxo-2-(1-(phenylsulfonyl)piperidin-3-yl)-1,6-dihydropyrimidine-4-carboxamide] |
| 1 to 10 | 0.1 to 1 | Cn1c(C2CCCN(C(=O)c3cncnc3)C2)nc(C(=O)Nc2cnoc2)c(O)c1=O (stereo not drawn) [Example 58, 5-hydroxy-N-(isoxazol-4-yl)-1-methyl-6-oxo-2-(1-(pyrimidine-5-carbonyl)piperidin-3-yl)-1,6-dihydropyrimidine-4-carboxamide] |
| 1 to 10 | 0.1 to 1 | Cn1c(C2CCCN(C(=O)c3ccc(Cl)cc3)C2)nc(C(=O)Nc2cnoc2)c(O)c1=O (stereo not drawn) [Example 59, 2-(1-(4-chlorobenzoyl)piperidin-3-yl)-5-hydroxy-N-(isoxazol-4-yl)-1-methyl-6-oxo-1,6-dihydropyrimidine-4-carboxamide] |
| 10 to 100 | 1 to 10 | CN(C)CCCC(=O)N1CCCC(c2nc(C(=O)Nc3cnoc3)c(O)c(=O)n2C)C1 (stereo not drawn) [Example 60, 2-(1-(4-(dimethylamino)butanoyl)piperidin-3-yl)-5-hydroxy-N-(isoxazol-4-yl)-1-methyl-6-oxo-1,6-dihydropyrimidine-4-carboxamide] |
| 1 to 10 | 0.1 to 1 | Cn1c(C2CCCN(C(=O)Cc3ccccc3)C2)nc(C(=O)Nc2cnoc2)c(O)c1=O (stereo not drawn) [Example 61, 5-hydroxy-N-(isoxazol-4-yl)-1-methyl-6-oxo-2-(1-(2-phenylacetyl)piperidin-3-yl)-1,6-dihydropyrimidine-4-carboxamide] |
